Source: paper PMC10571957, “αV-Integrin-Dependent Inhibition of Glioblastoma Cell Migration, Invasion and Vasculogenic Mimicry by the uPAcyclin Decapeptide” (Cancers, 2023)
Where “and” joins values, the source holds several entries; their conditions need not be identical. Identical values can stand only once.

How the values were obtained:
breast cancer cell lines = conditions: ref Belli et al. [25]; cited from earlier work
[1] = tested on: U251-MG cells (αV integrin); experiment: FITC-uPAcyclin receptor binding/competition, U251-MG; parameters: species or system human; conditions: unlabeled uPAcyclin vs FITC-uPAcyclin, 4 °C
Procedure: (§1) The U87-MG, U251-MG, and U138-MG cell lines were harvested and acid-treated, as described. Then, 2 × 10^6 cells/sample were exposed for 30 min at 4 °C to uPAcyclin or S-uPAcyclin at the indicated concentrations, or with the following antibodies: VNR147 monoclonal anti-αV integrin (Chemicon Int. Inc., Temecula, CA, USA), polyclonal anti-αV (Millipore, Burlington, MA, USA), monoclonal anti-α2 (Chemicon Int. Inc., Temecula, CA, USA), polyclonal anti-actin (Sigma-Aldrich, St. Louis, MO, USA), monoclonal anti-GAPDH (Abcam, Cambridge, UK), and purified vitronectin (VN, Corning, Glendale, AZ, USA). The cells were subsequently incubated with 50 nM FITC-uPAcyclin for 2 h at 4 °C, as described. At the end of incubation, the cells were washed and the cell surface-associated fluorescence was determined using a fluorimeter (VICTOR^TM X3-PerkinElmer, Waltham, MA, USA). All binding assays were performed three times, with duplicate samples, and analyzed as described in Section 2.11.
(§2) Figure 2 αV expression of U87-MG, U251-MG, and U138-MG GBM cells and specific binding of FITC-uPAcyclin. […] At the end of the incubation, the unbound material was washed and cell-associated FITC-uPAcyclin was quantitated by a fluorimeter. The net value of cell-surface-associated fluorescence, corresponding to the specific binding, is shown. […]

[2] = tested on: U138-MG cells (αV integrin); experiment: FITC-uPAcyclin receptor binding/competition, U138-MG; parameters: species or system human; conditions: unlabeled uPAcyclin vs FITC-uPAcyclin, 4 °C
Procedure: as §1, §2

U87-MG cells = experiment: Boyden chamber Matrigel invasion, U87-MG; assay type: cell-based, human; conditions: for invasion, % basal, average expt 1: mean of expt 1
Procedure: The migration and invasion assays were performed using Boyden chambers and 8 µm pore size PVP-free filters coated with 50 µg/mL of collagen type VI (Sigma), as previously described. For the invasion assays, collagen-coated filters were further coated with 50 µg/mL Matrigel^TM (Sigma). Briefly, 11 × 10^4 U87-MG, 4 × 10^4 U251-MG, or 4 × 10^4 U138-MG/sample were pre-treated for 40 min at 37 °C with the indicated effectors. Then, the cells were allowed to migrate for 3 h or to invade for 5 h at 37 °C toward 5% FBS in DMEM/0.1% BSA. At the end of both assays, the cells on the lower filter surface were fixed, stained with haematoxylin, and counted under an optical microscope (Zeiss Axiophot, Carl Zeiss, Milan, Italy) at 20× magnification. […] The migrated or invaded cells were reported as percentage of basal migration or invasion in the presence of DMEM/0.1% BSA, taken as 100%, and analyzed as reported in Section 2.11.
Figure 4 Effect of uPAcyclin on matrix invasion of U87-MG, U251-MG, and U138-MG GBM cells. Quantitative analysis of U87-MG (A), U251-MG (B), and U138-MG (C) invasion. […] Data are expressed as in the legend to Figure 3. Results are expressed as percentages with respect to the basal invasion, considered as 100% (* p-value < 0.05; ** p-value < 0.005; *** p-value < 0.001).

[3] = tested on: HT1080 fibrosarcoma cells; conditions: cited from earlier work
Excerpt: Thus, in the present work, we investigated the effects of the anti-migratory uPAcyclin decapeptide, binding to the αV integrin subunit. This cyclic decapeptide is derived from a non-catalytic region of the human urokinase (uPA) plasminogen activator. The growth factor domain (GFD, residues 1-49) and the connecting peptide region (CP, residues 132-158) confer to the full uPA a clearcut motogen activity. While the GFD binds to the urokinase receptor (uPAR), the CP region binds to the αV integrin subunit. […] The primary sequence of this cyclic peptide, derived from the connecting peptide region (CP) of the serin protease urokinase (uPA), is reported in Figure 1A. As assessed by a previous conformational analysis of uPAcyclin performed in water solution, about half of the peptide molecules ...

[4] = 100 nM, 5% FBS, 5 h, expt 1, duplicates
[5] = 100 nM, 5% FBS, 5 h, expt 2, duplicates
[6] = 100 nM, 5% FBS, 5 h, expt 3, duplicates
[7] = 1 µM, 5% FBS, 5 h, expt 1, duplicates

## Ac-K^1P[ESPPEELK^10]-NH2 (sidechain bridge or staple) [uPAcyclin]
Breast cancer cell lines
  migration and invasion inhibition: potent inhibitor of migration and invasion of breast cancer cell lines
[1]
  Kdapp: low nanomolar range
[2]
  Kdapp: low nanomolar range
U87-MG cells; 100 nM, U87-MG, 5% FBS, 5 h
  reduction in invasion: 50–60%
U87-MG cells; [4]
  invaded cell number/field: 29 cell number/field and 28 cell number/field
  invasion, % of basal: 111% and 108%
U87-MG cells; [5]
  invaded cell number/field: 28 cell number/field and 29 cell number/field
  invasion, % of basal: 117% and 121%
U87-MG cells; [6]
  invaded cell number/field: 34 cell number/field and 33 cell number/field
  invasion, % of basal: 131% and 127%
U87-MG cells; 100 nM, mean of 3 expts
  Invasion, %, average 3 expts: 119%
U87-MG cells; 100 nM
  invasion, % basal, average expt 1: 110%
U87-MG cells; 100 nM, mean of expt 2
  invasion, % basal, average expt 2: 119%
U87-MG cells; 100 nM, mean of expt 3
  invasion, % basal, average expt 3: 129%
U87-MG cells; 100 nM, single replicates of 3 expts
  invasion, % of basal, T-test list: 111 and 108 and 117 and 121 and 131 and 127
U87-MG cells; 1 µM, U87-MG, 5% FBS, 5 h
  invasion, in words: reduced invasion to basal levels
U87-MG cells; [7]
  invaded cell number/field: 24 cell number/field and 26 cell number/field
  invasion, % of basal: 92% and 100%
U87-MG cells; 1 µM, headed average 3 expts (only expt 1 has data)
  Invasion, %, average 3 expts: 96%
U87-MG cells; 1 µM
  invasion, % basal, average expt 1: 96%
U87-MG cells; printed 10 µM, single replicates
  invasion, % of basal, T-test list: 92 and 100
[3]; mice injected with HT1080 fibrosarcoma cells, ref [29]
  lung metastases: prevent lung metastases
[3]; nude mice, ref [25]
  metastatic lung spreading: markedly inhibits metastatic lung spreading in nude mice
